Assay results published in PubChem BioAssay AID1208 (EPA DSSTox, 2008).
Values joined by “and” are separate entries in the source; they are usually repeats but may differ in a detail not shown here. Identical values can stand only once. Active and inactive are the calls of the source.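 Rule for the calls: active = at least one rat sex group has a carcinogenic potency value and tumor site recorded; inconclusive = only rat studies were judged inadequate by the national testing program; inactive = no potency or tumor site, with negative rat experiments.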

Test system: rat chronic carcinogenicity bioassay, TD50
Assay: DSSTox (CPDBAS) Carcinogenic Potency Database Summary Rat Bioassay Results
Settings: for Potency: active compounds read low; for outcome: TD50_Rat_Note: no positive results
Method in brief: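 Chronic long-term rat cancer bioassays from literature and NCI/NTP, taking the most positive result per sex. TD50 in mmol converted to a 1–100 Activity Score from log10(1/TD50). Mixtures lacking TD50 scored 50.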

[1] = TargetSites_Rat_Female: no positive results

Compound | outcome [1] | other results
CC1CN1P(=O)(N1CC1C)N1CC1C (stereo not given) | – | Potency: 4.46 mg/kg/day
S=C1NCCN1 | – | Potency (TD50_Rat_Note: TD50 is harmonic mean of more than one positive test, greater than ten-fold variation among TD50 values for positive res, TargetSites_Rat_Female: thyroid gland, TargetSites_Rat_BothSexes: liver): 8.13 mg/kg/day
CCCCC(CC)COC(=O)c1ccccc1C(=O)OCC(CC)CCCC (stereo not given) | – | Potency (TD50_Rat_Note: TD50 is harmonic mean of more than one positive test, TargetSites_Rat_Female: liver): 716 mg/kg/day
O=C1C2CC=CCC2C(=O)N1SC(Cl)(Cl)Cl (stereo not given) | – | Potency (TD50_Rat_Note: TD50 is harmonic mean of more than one positive test, TargetSites_Rat_Female: uterus): 2080 mg/kg/day
ClC(Cl)=C(Cl)c1c(Cl)c(Cl)c(Cl)c(Cl)c1Cl | inactive; no positive results | –
Brc1cc(Br)c2cccnc2c1 | inactive; no positive results | –
Nc1nc(N)nc(-c2cc(Cl)ccc2Cl)n1 | – | outcome: inactive; no positive results
CN(CCCC(=O)c1cccnc1)N=O | – | Potency (TD50_Rat_Note: TD50 is harmonic mean of more than one positive test): 0.0999 mg/kg/day
CCn1nc(C)c2c1C(c1ccccc1)=NCC(=O)N2 | inactive; no positive results | –
C1CNCCN1 | inactive; no positive results | –
CO[C@H]1/C=C/O[C@@]2(C)Oc3c(C)c(O)c4c(O)c(c(/C=N/N5CCN(C)CC5)c(O)c4c3C2=O)NC(=O)/C(C)=C\C=C\[C@H](C)[C@H](O)[C@@H](C)[C@@H](O)[C@@H](C)[C@H](OC(C)=O)[C@@H]1C | inactive; no positive results | –
Cc1ccccc1N=O | – | Potency: 50.7 mg/kg/day
O=c1ccc(=O)[nH][nH]1 | inactive; no positive results | –
CCc1ccc(C(c2ccc(CC)cc2)C(Cl)Cl)cc1 | inactive; no positive results | –
Oc1ccc(Cl)cc1Cc1ccccc1 | inactive; no positive results | –
CC(I)C1OCC(CO)O1 (stereo not given) | – | Potency [1]: 101 mg/kg/day
O=NN1CCC[C@H]1C(=O)O | inactive; no positive results | –
O=C(O)CN(CC(=O)O)CC(=O)O | – | Potency (TD50_Rat_Note: TD50 is harmonic mean of more than one positive test, TargetSites_Rat_Female: kidney, urinary bladder): 1770 mg/kg/day and 370 mg/kg/day
CC(=O)Nc1ccc(S(=O)(=O)O)c2cc(S(=O)(=O)O)c(N=Nc3ccc(N=Nc4ccc(S(=O)(=O)O)cc4)c4ccc(S(=O)(=O)O)cc34)c(O)c12 | inactive; no positive results | –
CC(C)N=[N+]([O-])C(C)C | – | Potency: 0.00268 mg/kg/day
Nc1ccc(Cc2ccc(N)cc2)cc1 | – | Potency (TD50_Rat_Note: TD50 is harmonic mean of more than one positive test, TargetSites_Rat_Female: thyroid gland): 20 mg/kg/day
Cc1ccc(/C(=C\CN2CCCC2)c2ccccn2)cc1 | inactive; no positive results | –
CC(=O)OC/C=C(C)/C=C/C=C(C)/C=C/C1=C(C)CCCC1(C)C | – | Potency (TD50_Rat_Note: TD50 is harmonic mean of more than one positive test, TargetSites_Rat_Female: adrenal gland): 125 mg/kg/day

Compound | outcome [1] | other results
[C-]1=CC=CC1.[C-]1=CC=CC1.[Cl-].[Cl-].[Ti+4] | inactive; no positive results | –
Cc1ccc(C)c(N)c1 | – | Potency: 152 mg/kg/day
O=C1CC(=O)NC(=O)N1 | – | outcome: inactive; no positive results
CCC1(CCC(C)C)C(=O)NC(=O)NC1=O | – | outcome: inactive; no positive results
CCCN(CCC)S(=O)(=O)c1ccc(C(=O)O)cc1 | inactive; no positive results | –
COc1ccc(N)c(C)c1 | – | Potency (TD50_Rat_Note: TD50 is harmonic mean of more than one positive test, TargetSites_Rat_Female: urinary bladder): 470 mg/kg/day
C=CC(=O)O | inactive; no positive results | –
CC(C)OC(=O)Nc1cccc(Cl)c1 | inactive; no positive results | –
CCCCCCCCCCCCCCN(C)N=O | – | Potency (TD50_Rat_Note: harmonic mean of TD50 includes a value for upper 99% confidence limit from study with 100% tumor incidence but no lifeta): 1.65 mg/kg/day
CC(=O)Nc1ccc(S(=O)(=O)c2ccc(NC(C)=O)cc2)cc1 | – | Potency (TD50_Rat_Note: no positive results are statistically significant, TargetSites_Rat_Female: mammary gland): 55.6 mg/kg/day
[Cl-].[Cl-].[Cl-].[Fe+3] | inactive; no positive results | –
COc1ccc2c3c1O[C@H]1[C@@H](O)C=C[C@H]4[C@@H](C2)N(C)CC[C@@]341 | inactive; no positive results | –
O=C1CCN([C@@H]2O[C@H](CO)[C@@H](O)[C@H]2O)C(=O)N1 | – | outcome: inactive; no positive results
O.O.O.O.O.O.O=S(=O)([O-])[O-].[Ni+2] | inactive; no positive results | –
Nc1c(Cl)c(Cl)nc(C(=O)O)c1Cl | inactive; no positive results | –
CCC[N+](=O)[O-] | inactive; no positive results | –
C[C@@H]1CCC[C@H](C)N1CCCC(O)(c1ccccc1)c1ccccn1 (stereo not given in full) | inactive; no positive results | –
ClC(Cl)=C(c1ccc(Cl)cc1)c1ccc(Cl)cc1 | inactive; no positive results | –
c1ccc(OCC2CO2)cc1 (stereo not given) | – | Potency (TD50_Rat_Note: TD50 is harmonic mean of more than one positive test, TargetSites_Rat_Female: nasal cavity): 44 mg/kg/day
CN=C(N)N | – | outcome: inactive; no positive results
NC(=O)N/N=C/c1ccc([N+](=O)[O-])o1 | – | Potency (TD50_Rat_Note: TD50 is harmonic mean of more than one positive test, harmonic mean of TD50 includes a value for upper 99% confidence li, TargetSites_Rat_Female: mammary gland): 6.98 mg/kg/day
CCCN(CCC)c1c([N+](=O)[O-])cc(C(F)(F)F)cc1[N+](=O)[O-] | inactive; no positive results | –
